Measurements: US9387204B2, “Fused bicyclic imidazoles” (BAYER INTELLECTUAL PROPERTY GmbH, priority 2007, dated 2016)
pIC50: −log10 of the molar value.

tested on: A549 cells; assay: Cellular proliferation/cytotoxicity assay (Alamar Blue), A549 cells; conditions: Homo sapiens, A549, 72 h, read-out: Anti-proliferative/Cytotoxic activity (A549 cells)
Method: The anti-proliferative activity of the compounds as described herein, is evaluated using the OvCAR3, HCT116 and A549 cell lines and the Alamar Blue (Resazurin) cell viability assay (O'Brien et al. Eur J Biochem 267, 5421-5426, 2000). Resazurin is reduced to the fluorescent resorufin by cellular dehydrogenase activity, correlating with viable, proliferating cells. Test compounds are dissolved as 10 mM solutions in DMSO and subsequently diluted. Cells like HCT116 or A549 cells were seeded into 96 well flat bottom plates at a density of 10000 cells/well (OvCAR3 cells), 1000 cells/well (HCT116 cells) or 2000 cells/well (A549 cells) in a volume of 200 μl/well. 24 hours after seeding, 1 μl each of the compound dilutions are added into each well of the 96 well plates. Each compound dilution is tested as at least as duplicates. Wells containing untreated control cells were filled with 200 μl DMEM (Dulbecco's Modified Eagle Medium) containing 0.5 vol % v:v DMSO. The cells are then incubated with the substances for 72 h at 37° C. in a humidified atmosphere containing 5 vol % CO2. To determine the viability of the cells, 20 μl of a Resazurin solution (90 mg/l) are added. After 4 h incubation at 37° C., the fluorescence is measured by extinction at ? =544 nm and an emission of ? =590 nm (Wallac Victor2; Perkin Elmer, USA). For the calculation of the cell viability, the emission value from untreated cells is set as 100% viability and the fluorescence intensity of treated cells are set in relation to the values of untreated cells. Viabilities are expressed as % values. The corresponding IC50 values of the compounds for cytotoxic activity are determined from the concentration-effect curves by means of non-linear regression. The analysis of the data is performed using a biostatistical program (Graph Pad Prism, USA).

Structure (SMILES)	pIC50
c1ccc(-c2c(-c3ccc(CN4CCC(c5nc(-c6cnccn6)no5)CC4)cc3)nc3ncccn23)cc1 [Example 4, 3-phenyl-2-(4-{[4-(3-pyrazin-2-yl-1,2,4-oxadiazol-5-yl)piperidin-1-yl]methyl}phenyl)imidazo[1,2-a]pyrimidine]	< 5.00
COc1cccn2c(-c3ccccc3)c(-c3ccc(CN4CCC(c5n[nH]c(-c6ccccn6)n5)CC4)cc3)nc12 [Example 13, 8-methoxy-3-phenyl-2-(4-{[4-(5-pyridin-2-yl-1,2,4-triazol-3-yl)piperidin-1-yl]methyl}phenyl)imidazo[1,2-a]pyridine]	> 5.00
c1ccc(-c2nc(C3CCN(Cc4ccc(-c5nc6ncccn6c5-c5ccsc5)cc4)CC3)n[nH]2)nc1 [Example 34, 2-(4-{[4-(5-pyridin-2-yl-1,2,4-triazol-3-yl)piperidin-1-yl]methyl}phenyl)-3-(3-thienyl)imidazo[1,2-a]pyrimidine]	< 5.00
Clc1ccn2c(-c3ccccc3)c(-c3ccc(CN4CCC(c5nnc(-c6ccccc6)[nH]5)CC4)cc3)nc2c1 [Example 120, 7-chloro-3-phenyl-2-(4-{[4-(5-phenyl-4H-1,2,4-triazol-3-yl)piperidin-1-yl]methyl}phenyl)imidazo[1,2-a]pyridine]	> 5.00
Cc1ccn2c(-c3ccccc3)c(-c3ccc(CN4CCC(c5nnc(-c6ccccn6)[nH]5)CC4)cc3)nc2c1 [Example 50, 7-methyl-3-phenyl-2-[4-({4-[5-(pyridin-2-yl)-4H-1,2,4-triazol-3-yl]piperidin-1-yl}methyl)phenyl]imidazo[1,2-a]pyridine]	< 5.00
Cc1ccn2c(-c3ccccc3)c(-c3ccc(CN4CCC(c5n[nH]c(-c6ccccn6)n5)CC4)cc3)nc2n1 [Example 19, 7-methyl-3-phenyl-2-(4-{[4-(5-pyridin-2-yl-1,2,4-triazol-3-yl)piperidin-1-yl]methyl}phenyl)imidazo[1,2-a]pyrimidine]	> 5.00
COc1ccc(-c2c(-c3ccc(CN4CCC(c5n[nH]c(-c6ccccn6)n5)CC4)cc3)nc3ncccn23)cc1 [Example 20, 3-(4-methoxyphenyl)-2-(4-{[4-(5-pyridin-2-yl-1,2,4-triazol-3-yl)piperidin-1-yl]methyl}phenyl)imidazo[1,2-a]pyrimidine]	< 5.00
Cc1nn2c(-c3ccccc3)c(-c3ccc(CN4CCC(c5nnc(-c6ccccn6)[nH]5)CC4)cc3)nc2s1 [Example 45, 2-methyl-5-phenyl-6-[4-({4-[5-(pyridin-2-yl)-4H-1,2,4-triazol-3-yl]piperidin-1-yl}methyl)phenyl]imidazo[2,1-b][1,3,4]thiadiazole]	< 5.00
Cc1cccc(-c2nnc(C3CCN(Cc4ccc(-c5nc6ccc(C)nn6c5-c5ccccc5)cc4)CC3)[nH]2)n1 [Example 69, 6-methyl-2-[4-({4-[5-(6-methylpyridin-2-yl)-4H-1,2,4-triazol-3-yl]piperidin-1-yl}methyl)phenyl]-3-phenylimidazo[1,2-b]pyridazine]	> 5.00
c1ccc(-c2c(-c3ccc(CN4CCC(c5cc(-c6ccccn6)n[nH]5)CC4)cc3)nc3ncccn23)cc1 [Example 30, 3-phenyl-2-(4-{[4-(3-pyridin-2-yl-pyrazol-5-yl)piperidin-1-yl]methyl}phenyl)imidazo[1,2-a]pyrimidine]	< 5.00

same assay, conditions: read-out: Anti-proliferative/Cytotoxic activity (A549 cells); A549 cells, 72 h, Alamar Blue (Resazurin)

Structure (SMILES)	pIC50
Cc1cccc(-c2nnc(C3CCN(Cc4ccc(-c5nc6scnn6c5-c5ccccc5)cc4)CC3)[nH]2)n1 [Example 67, ′6-[4-({4-[5-(6-methylpyridin-2-yl)-4H-1,2,4-triazol-3-yl]piperidin-1-yl}methyl)phenyl]-5-phenylimidazo[2,1-b][1,3,4]thiadiazole]	> 5.00
Cc1ccc2nc(-c3ccc(CN4CCC(c5nnc(-c6cccs6)[nH]5)CC4)cc3)c(-c3ccccc3)n2n1 [Example 99, ′6-methyl-3-phenyl-2-[4-({4-[5-(2-thienyl)-4H-1,2,4-triazol-3-yl]piperidin-1-yl}methyl)phenyl]imidazo[1,2-b]pyridazine]	> 5.00
c1ccc(-c2c(-c3ccc(CN4CCC(c5nnc(-c6ccc[nH]6)[nH]5)CC4)cc3)nc3sccn23)cc1 [Example 109, ′5-phenyl-6-[4-({4-[5-(1H-pyrrol-2-yl)-4H-1,2,4-triazol-3-yl]piperidin-1-yl}methyl)phenyl]imidazo[2,1-b][1,3]thiazole]	> 5.00
c1ccc(-c2c(-c3ccc(CN4CCC(c5nnc(-c6cccs6)[nH]5)CC4)cc3)nc3sccn23)cc1 [Example 100, ′5-phenyl-6-[4-({4-[5-(2-thienyl)-4H-1,2,4-triazol-3-yl]piperidin-1-yl}methyl)phenyl]imidazo[2,1-b][1,3]thiazole]	> 5.00
N#Cc1ccn2c(-c3ccccc3)c(-c3ccc(CN4CCC(c5nnc(-c6ccco6)[nH]5)CC4)cc3)nc2c1 [Example 96, ′2-[4-({4-[5-(2-furyl)-4H-1,2,4-triazol-3-yl]piperidin-1-yl}methyl)phenyl]-3-phenylimidazo[1,2-a]pyridine-7-carbonitrile]	> 5.00
N#Cc1cccn2c(-c3ccccc3)c(-c3ccc(CN4CCC(c5n[nH]c(-c6ccc(Cl)cn6)n5)CC4)cc3)nc12 [Example 75, ′2-[4-({4-[5-(5-chloropyridin-2-yl)-1H-1,2,4-triazol-3-yl]piperidin-1-yl}methyl)phenyl]-3-phenylimidazo[1,2-a]pyridine-8-carbonitrile]	< 5.00
N#Cc1ccn2c(-c3ccccc3)c(-c3ccc(CN4CCC(c5nnc(-c6cccs6)[nH]5)CC4)cc3)nc2c1 [Example 102, ′3-phenyl-2-[4-({4-[5-(2-thienyl)-4H-1,2,4-triazol-3-yl]piperidin-1-yl}methyl)phenyl]imidazo[1,2-a]pyridine-7-carbonitrile]	> 5.00
O=C(O)c1cn2c(-c3ccccc3)c(-c3ccc(CN4CCC(c5nnc(-c6ccccn6)[nH]5)CC4)cc3)nc2s1 [Example 127, ′5-phenyl-6-(4-{[4-(5-pyridin-2-yl-4H-1,2,4-triazol-3-yl)piperidin-1-yl]methyl}phenyl)imidazo[2,1-b][1,3]thiazole-2-carboxylic acid]	< 5.00
c1ccc(-c2c(-c3ccc(CN4CCC(c5nnc(-c6ccco6)[nH]5)CC4)cc3)nc3scnn23)cc1 [Example 94, ′6-[4-({4-[5-(2-furyl)-4H-1,2,4-triazol-3-yl]piperidin-1-yl}methyl)phenyl]-5-phenylimidazo[2,1-b][1,3,4]thiadiazole]	> 5.00
c1ccc(-c2c(-c3ccc(CN4CCC(c5n[nH]c(-c6ncccn6)n5)CC4)cc3)nc3ncccn23)cc1 [Example 79, ′3-phenyl-2-(4-{[4-(5-pyrimidin-2-yl-1H-1,2,4-triazol-3-yl)piperidin-1-yl]methyl}phenyl)imidazo[1,2-a]pyrimidine]	< 5.00
c1ccc(-c2c(-c3ccc(CN4CCC(c5nnc(-c6ccncc6)[nH]5)CC4)cc3)nc3ccccn23)cc1 [Example 58, ′3-phenyl-2-(4-{[4-(5-pyridin-4-yl-4H-1,2,4-triazol-3-yl)piperidin-1-yl]methyl}phenyl)imidazo[1,2-a]pyridine]	> 5.00
c1ccc(-c2c(-c3ccc(CN4CCC(c5cc(-c6ccccn6)n[nH]5)CC4)cc3)nc3ccccn23)cc1 [Example 111, ′3-phenyl-2-(4-{[4-(3-pyridin-2-yl-1H-pyrazol-5-yl)piperidin-1-yl]methyl}phenyl)imidazo[1,2-a]pyridine]	> 5.00
